In the supplement of paper PMC13380429:

Key:
U2OS [1] = assay: cell viability relative to DMSO; higher = less toxic; settings: 72 h
HepG2 [2] = assay: as above; settings: 72 h
Calu-3 [3] = assay: as above; settings: 72 h
Caco-2 [4] = assay: as above; settings: 72 h
Vero E6 [5] = assay: as above; settings: 72 h
U2OS [6] = assay: relative viability EC50 (midpoint between 100% and the lowest measured viability); higher = less toxic; settings: 72 h
HepG2 [7] = assay: as above; settings: 72 h
Calu-3 [8] = assay: as above; settings: 72 h
Caco-2 [9] = assay: as above; settings: 72 h
Vero E6 [10] = assay: as above; settings: 72 h
[11] = tested on: A549-ACE2 infected with SARS-CoV-2; assay: morphology score (similarity to uninfected cells); higher = more like uninfected cells; settings: 24 h
A549-ACE2 [12] = assay: drug-induced phospholipidosis relative to tamoxifen; higher = more phospholipidosis
[13] = tested on: A549-ACE2 infected with SARS-CoV-2; assay: SARS-CoV-2 infection rate relative to DMSO; higher = more infection; settings: 24 h
U2OS [14] = assay: drug sensitivity score (DSS) for viability; higher = more toxic; extreme values may be limits of the assay; settings: 72 h
HepG2 [15] = assay: as above; settings: 72 h
Calu-3 [16] = assay: as above; settings: 72 h
Caco-2 [17] = assay: as above; settings: 72 h
Vero E6 [18] = assay: as above; settings: 72 h
A549-ACE2 [19] = assay: phospholipidosis EC50; higher = less potent phospholipidosis inducer
[20] = tested on: A549-ACE2 infected with SARS-CoV-2; assay: cell count relative to DMSO; higher = less toxic; settings: 24 h

CNCCCCOc1ccccc1Cc1ccccc1 [bifemelane]
Settings | SARS-CoV-2 infection rate [%] | cell count [%] | cell viability [%] | morphology score | phospholipidosis EC50 [µM]
A549-ACE2 [19], 24 h | – | – | – | – | 5.4
A549-ACE2 [19], 48 h | – | – | – | – | 5.1
A549-ACE2 [19], 72 h | – | – | – | – | 6.67
Caco-2 [4], 1 nM | – | – | 100 | – | –
Caco-2 [4], 10 nM | – | – | 101 | – | –
Caco-2 [4], 100 nM | – | – | 91.5 | – | –
Caco-2 [4], 1000 nM | – | – | 102 | – | –
Caco-2 [4], 10000 nM | – | – | 89.3 | – | –
Calu-3 [3], 1 nM | – | – | 112 | – | –
Calu-3 [3], 10 nM | – | – | 104 | – | –
Calu-3 [3], 100 nM | – | – | 95.8 | – | –
Calu-3 [3], 1000 nM | – | – | 90.1 | – | –
Calu-3 [3], 10000 nM | – | – | 104 | – | –
HepG2 [2], 1 nM | – | – | 98.7 | – | –
HepG2 [2], 10 nM | – | – | 101 | – | –
HepG2 [2], 100 nM | – | – | 89.5 | – | –
HepG2 [2], 1000 nM | – | – | 92.7 | – | –
HepG2 [2], 10000 nM | – | – | 85 | – | –
U2OS [1], 1 nM | – | – | 96.6 | – | –
U2OS [1], 10 nM | – | – | 91.1 | – | –
U2OS [1], 100 nM | – | – | 102 | – | –
U2OS [1], 1000 nM | – | – | 96.5 | – | –
U2OS [1], 10000 nM | – | – | 92.6 | – | –
Vero E6 [5], 1 nM | – | – | 109 | – | –
Vero E6 [5], 10 nM | – | – | 102 | – | –
Vero E6 [5], 100 nM | – | – | 96.8 | – | –
Vero E6 [5], 1000 nM | – | – | 100 | – | –
Vero E6 [5], 10000 nM | – | – | 89.5 | – | –
[11], 0.3 µM | – | – | – | -0.03 | –
[11], 3 µM | – | – | – | 0.43 | –
[11], 10 µM | – | – | – | 0.7 | –
[11], 30 µM | – | – | – | 0.69 | –
[13], 0.3 µM | 101 | – | – | – | –
[13], 3 µM | 96 | – | – | – | –
[13], 10 µM | 43 | – | – | – | –
[13], 30 µM | 16 | – | – | – | –
[20], 0.3 µM | – | 100 | – | – | –
[20], 3 µM | – | 106 | – | – | –
[20], 10 µM | – | 115 | – | – | –
[20], 30 µM | – | 110 | – | – | –

Settings | drug sensitivity score | relative viability EC50 [µM]
Caco-2 [9] | – | > 10
Caco-2 [17] | 0 | –
Calu-3 [8] | – | > 10
Calu-3 [16] | 0 | –
HepG2 [7] | – | > 10
HepG2 [15] | 0.6 | –
U2OS [6] | – | > 10
U2OS [14] | 0 | –
Vero E6 [10] | – | > 10
Vero E6 [18] | 0 | –

drug-induced phospholipidosis [%], A549-ACE2 [12]
Settings | 0.3 µM | 0.833333 µM | 3.33333 µM | 6.66667 µM | 10 µM | 30 µM
24 h | 0.28 | 1.11 | 22.9 | 61.8 | 79.9 | 96.4
48 h | -0.08 | -3.86 | 22.6 | 74.8 | 87.4 | 108
72 h | 3.27 | -0.257 | 16.8 | 61.6 | 86.2 | 116

Nc1nc(O)c2[nH]nnc2n1 [azaguanine-8]
Settings | SARS-CoV-2 infection rate, [13] [%] | cell count, [20] [%] | cell viability, Caco-2 [4] [%] | cell viability, Calu-3 [3] [%] | cell viability, HepG2 [2] [%] | cell viability, U2OS [1] [%] | cell viability, Vero E6 [5] [%] | morphology score, [11]
1 nM | – | – | 104 | 94.4 | 102 | 102 | 104 | –
10 nM | – | – | 105 | 94 | 100 | 95.4 | 103 | –
100 nM | – | – | 93.5 | 89.5 | 100 | 102 | 105 | –
0.1 µM | 106 | 102 | – | – | – | – | – | 0.12
0.3 µM | 91 | 104 | – | – | – | – | – | 0.27
1000 nM | – | – | 91.9 | 89.5 | 106 | 97.6 | 103 | –
1 µM | 96 | 102 | – | – | – | – | – | 0.08
3 µM | 94 | 102 | – | – | – | – | – | 0.33
10000 nM | – | – | 91.1 | 81.2 | 29.6 | 89.2 | 52 | –

Settings | drug sensitivity score | relative viability EC50 [µM]
Caco-2 [9] | – | > 10
Caco-2 [17] | 0 | –
Calu-3 [8] | – | > 10
Calu-3 [16] | 1.4 | –
HepG2 [7] | – | 3.6
HepG2 [15] | 3.4 | –
U2OS [6] | – | > 10
U2OS [14] | 0.1 | –
Vero E6 [18] | 2.3 | –

drug-induced phospholipidosis [%], A549-ACE2 [12]
Settings | 0.3 µM | 0.833333 µM | 3.33333 µM | 6.66667 µM | 10 µM | 30 µM
24 h | 2.81 | -0.65 | -1.26 | -0.07 | 3.53 | 16.6
48 h | 3.95 | -1.52 | -4.45 | -3.51 | -4.77 | –
72 h | 5.19 | -2.08 | -1.89 | -4.08 | -4.93 | –
